# Target: p38 (Homo sapiens, UniProt Q16539)
# Test: Protein Kinase Assay (33P incorporation from γ-[33P]ATP into GST-ATF-2)
# Type: biochemical
# Conditions: 2 nM p38, preincubated 20 min at 30° C.; 10 uM cold ATP, 2 uM GST-ATF2, 70 min; read-out: ACT. (Activity), IC50 category in Protein Kinase Assay
# Description: Protein Kinase Assay. The protein kinase activity of p38 was determined by measuring the incorporation of ^33P from γ-[^33P]ATP into the GST-ATF-2 substrate, amino acids 19-96 (Upstate, N.Y. USA). The reactions were carried out in a final volume of 50 μL of 24 mM Tris-HCl buffer, pH 7.5, containing 13 mM MgCl2, 12% Glycerol, 2% DMSO, 2 mM DTT, […] of γ-[^33P]ATP (1000 Ci/mmol; 1 Ci=37 GBq) (GE Healthcare, Piscataway, N.J.), 10 uM cold ATP (GE Healthcare, Piscataway, N.J.), and 2 uM GST-ATF2. Compounds were preincubated with 2 nM p38 for 20 min at 30° C.; the reactions were initiated by the addition of GST-ATF2 and ATP and incubated for 70 min at 30° C. before being stopped by the addition of 10 μL of 600 mM phosphoric acid. The phosphorylated substrate was captured on phosphocellulose 96-well plate (Millipore MAPHNOB 10), washed with 100 mM phosphoric acid, and counted in a BeckmenCoulter LS6500 liquid scintillation counter. […] (Activity).
# p38, sequence (Q16539 whole entry): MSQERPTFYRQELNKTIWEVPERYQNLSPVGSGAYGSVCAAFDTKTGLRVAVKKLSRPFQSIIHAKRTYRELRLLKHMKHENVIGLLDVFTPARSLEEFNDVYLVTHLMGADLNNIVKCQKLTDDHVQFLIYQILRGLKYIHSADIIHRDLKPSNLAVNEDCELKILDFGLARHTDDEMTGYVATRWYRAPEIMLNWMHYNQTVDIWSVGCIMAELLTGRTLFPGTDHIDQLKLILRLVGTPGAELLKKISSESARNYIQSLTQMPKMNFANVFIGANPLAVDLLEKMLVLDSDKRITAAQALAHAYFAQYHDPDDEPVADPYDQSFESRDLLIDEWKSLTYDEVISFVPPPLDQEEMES
row,SMILES,IC50
1,"CCc1ccc(-c2cc(NC(=O)Nc3cc(C(C)(C)C)sc3C(=O)N3CCN(C)C(=O)C3(C)C)ccc2C)cn1 [1-(5-tert-butyl-2-(2,2,4-trimethyl-3-oxopiperazine-1-carbonyl)thiophen-3-yl)-3-(3-(6-ethylpyridin-3-yl)-4-methylphenyl)urea]",< 100 nM
2,"CCc1ccc(-c2cc(NC(=O)Nc3cc(C(C)(C)C)sc3C(=O)N3CCN(C)C(=O)C3(C)C)cc(F)c2C)cn1 [1-(5-tert-butyl-2-(2,2,4-trimethyl-3-oxopiperazine-1-carbonyl)thiophen-3-yl)-3-(3-(6-ethylpyridin-3-yl)-5-fluoro-4-methylphenyl)urea]",< 100 nM
3,"COc1ccc(-c2cc(NC(=O)Nc3cc(C(C)(C)C)sc3C(=O)N3CCN(C)C(=O)C3(C)C)ccc2C)cn1 [1-(5-tert-butyl-2-(2,2,4-trimethyl-3-oxopiperazine-1-carbonyl)thiophen-3-yl)-3-(3-(6-methoxypyridin-3-yl)-4-methylphenyl)urea]",< 100 nM
4,"COc1ccc(-c2cc(NC(=O)Nc3cc(C(C)(C)C)sc3C(=O)N3CCN(C)C(=O)C3(C)C)cc(F)c2C)cn1 [1-(5-tert-butyl-2-(2,2,4-trimethyl-3-oxopiperazine-1-carbonyl)thiophen-3-yl)-3-(3-fluoro-5-(6-methoxypyridin-3-yl)-4-methylphenyl)urea]",< 100 nM
5,"Cc1ccc(NC(=O)Nc2cc(C(C)(C)C)sc2C(=O)N2CCN(C)C(=O)C2(C)C)cc1-c1ccc(CN2CCOCC2)nc1 [1-(5-tert-butyl-2-(2,2,4-trimethyl-3-oxopiperazine-1-carbonyl)thiophen-3-yl)-3-(4-methyl-3-(6-(morpholinomethyl)pyridin-3-yl)phenyl)urea]",< 100 nM
6,"Cc1ccc(NC(=O)Nc2cc(C(C)(C)C)sc2C(=O)N2CCN(C)C(=O)C2(C)C)cc1-c1ccc(N2CCOCC2)nc1 [1-(5-tert-butyl-2-(2,2,4-trimethyl-3-oxopiperazine-1-carbonyl)thiophen-3-yl)-3-(4-methyl-3-(6-morpholinopyridin-3-yl)phenyl)urea]",< 100 nM
7,"Cc1ccc(NC(=O)Nc2cc(C(C)(C)C)oc2C(=O)N2CCNC(=O)C2(C)C)cc1-c1ccc(OCCN(C)C)nc1 [1-(5-tert-butyl-2-(2,2-dimethyl-3-oxopiperazine-1-carbonyl)furan-3-yl)-3-(3-(6-(2-(dimethylamino)ethoxy)pyridin-3-yl)-4-methylphenyl)urea]",< 100 nM
8,"Cc1ccc(NC(=O)Nc2cc(C(C)(C)C)sc2C(=O)N2CCNC(=O)C2(C)C)cc1-c1ccc(CN2CCOCC2)nc1 [1-(5-tert-butyl-2-(2,2-dimethyl-3-oxopiperazine-1-carbonyl)thiophen-2-yl)-3-(4-methyl-3-(6-(morpholinomethyl)pyridin-3-yl)phenyl)urea]",< 100 nM
9,"COc1ccc(-c2cc(NC(=O)Nc3cc(C(C)(C)C)sc3C(=O)N3CCNC(=O)C3(C)C)ccc2C)cn1 [1-(5-tert-butyl-2-(2,2-dimethyl-3-oxopiperazine-1-carbonyl)thiophen-3-yl)-3-(3-(6-methoxypyridin-3-yl)-4-methylphenyl)urea]",< 100 nM
10,"Cc1cc(NC(=O)Nc2cc(C(C)(C)C)sc2C(=O)N2CCNC(=O)C2(C)C)cc(-c2ccc(N3CCOCC3)cn2)c1 [1-(5-tert-butyl-2-(2,2-dimethyl-3-oxopiperazine-1-carbonyl)thiophen-3-yl)-3-(3-methyl-5-(5-morpholinopyridin-2-yl)phenyl)urea]",< 100 nM
11,"Cc1ccc(NC(=O)Nc2cc(C(C)(C)C)sc2C(=O)N2CCN(C(C)C)C(=O)C2(C)C)cc1-c1ccc(CN2CCOCC2)nc1 [1-(5-tert-butyl-2-(4-isopropyl-2,2-dimethyl-3-oxopiperazine-1-carbonyl)thiophen-3-yl)-3-(4-methyl-3-(6-(morpholinomethyl)pyridin-3-yl)phenyl)urea]",< 100 nM
12,Cc1ccc(NC(=O)Nc2cc(C(C)(C)C)sc2C(=O)N2CCN(C)C(=O)C2)cc1-c1ccc(CN2CCOCC2)nc1 [1-(5-tert-butyl-2-(4-methyl-3-oxopiperazine-1-carbonyl)thiophen-3-yl)-3-(4-methyl-3-(6-(morpholinomethyl)pyridin-3-yl)phenyl)urea],< 100 nM
13,"Cc1ccc(NC(=O)Nc2sc(C(C)(C)C)cc2C(=O)N2CCN(C)C(=O)C2(C)C)cc1-c1cnc(NCC(O)CO)nc1 (stereo not drawn) [1-(5-tert-butyl-3-(2,2,4-trimethyl-3-oxopiperazine-1-carbonyl)thiophen-2-yl)-3-(3-(2-(2,3-dihydroxypropylamino)pyrimidin-5-yl)-4-methylphenyl)urea]",< 100 nM
14,"CCc1ccc(-c2cc(NC(=O)Nc3sc(C(C)(C)C)cc3C(=O)N3CCN(C)C(=O)C3(C)C)ccc2C)nc1 [1-(5-tert-butyl-3-(2,2,4-trimethyl-3-oxopiperazine-1-carbonyl)thiophen-2-yl)-3-(3-(5-ethylpyridin-2-yl)-4-methylphenyl)urea]",< 100 nM
15,"Cc1ccc(NC(=O)Nc2sc(C(C)(C)C)cc2C(=O)N2CCN(C)C(=O)C2(C)C)cc1-c1ccc(C(C)O)nc1 (stereo not drawn) [1-(5-tert-butyl-3-(2,2,4-trimethyl-3-oxopiperazine-1-carbonyl)thiophen-2-yl)-3-(3-(6-(1-hydroxyethyl)pyridin-3-yl)-4-methylphenyl)urea]",< 100 nM

# The remaining lines, values ahead:
row,IC50,SMILES
1,< 100 nM,"Cc1ccc(NC(=O)Nc2sc(C(C)(C)C)cc2C(=O)N2CCNC(=O)C2(C)C)cc1-c1ccc(N2CCC(N)C2)nc1 (stereo not drawn) [1-(3-(6-(3-aminopyrrolidin-1-yl)pyridin-3-yl)-4-methylphenyl)-3-(5-tert-butyl-3-(2,2-dimethyl-3-oxopiperazine-1-carbonyl)thiophen-2-yl)urea]"
2,< 100 nM,"Cc1ccc(NC(=O)Nc2sc(C(C)(C)C)cc2C(=O)N2CCNC(=O)C2(C)C)cc1-c1ccc(CN)nc1 [1-(3-(6-(aminomethyl)pyridin-3-yl)-4-methylphenyl)-3-(5-tert-butyl-3-(2,2-dimethyl-3-oxopiperazine-1-carbonyl)thiophen-2-yl)urea]"
3,< 1000 nM,"Cc1ccc(NC(=O)Nc2sc3c(c2C(=O)N2CCN(C)C(=O)C2(C)C)CCOC3)cc1-c1ccc(CN2CCOCC2)nc1 [1-(4-methyl-3-(6-(morpholinomethyl)pyridin-3-yl)phenyl)-3-(3-(2,2,4-trimethyl-3-oxopiperazine-1-carbonyl)-5,7-dihydro-4H-thieno[2,3-c]pyran-2-yl)urea]"
4,< 100 nM,"CCC(C)(C)c1cc(C(=O)N2CCN(C)C(=O)C2(C)C)c(NC(=O)Nc2ccc(C)c(-c3ccc(CN4CCOCC4)nc3)c2)s1 [1-(4-methyl-3-(6-(morpholinomethyl)pyridin-3-yl)phenyl)-3-(5-tert-pentyl-3-(2,2,4-trimethyl-3-oxopiperazine-1-carbonyl)thiophen-2-yl)urea]"
5,< 100 nM,"Cc1ccc(NC(=O)Nc2cc(C(C)(C)C)oc2C(=O)N2CCN(C)C(=O)C2(C)C)cc1-c1ccc(CN2CCOCC2)cn1 [1-(5-tert-butyl-2-(2,2,4-trimethyl-3-oxopiperazine-1-carbonyl)furan-3-yl)-3-(4-methyl-3-(5-(morpholinomethyl)pyridin-2-yl)phenyl)urea]"
6,< 100 nM,"Cc1ccc(-c2ccc(N3CCOCC3)cn2)cc1NC(=O)Nc1cc(C(C)(C)C)sc1C(=O)N1CCNC(=O)C1(C)C [1-(5-tert-butyl-2-(2,2-dimethyl-3-oxopiperazine-1-carbonyl)thiophen-3-yl)-3-(2-methyl-5-(5-morpholinopyridin-2-yl)phenyl)urea]"
7,< 100 nM,"Cc1ccc(NC(=O)Nc2cc(C(C)(C)C)sc2C(=O)N2CCNC(=O)C2(C)C)cc1-c1ccc(N2CCOCC2)cn1 [1-(5-tert-butyl-2-(2,2-dimethyl-3-oxopiperazine-1-carbonyl)thiophen-3-yl)-3-(4-methyl-3-(5-morpholinopyridin-2-yl)phenyl)urea]"
8,< 100 nM,"Cc1ccc(NC(=O)Nc2cc(C(C)(C)C)sc2C(=O)N2CCNC(=O)C2(C)C)cc1-c1ccc(N2CCOCC2)nc1 [1-(5-tert-butyl-2-(2,2-dimethyl-3-oxopiperazine-1-carbonyl)thiophen-3-yl)-3-(4-methyl-3-(6-morpholinopyridin-3-yl)phenyl)urea]"
9,< 100 nM,"CCN1CCN(C(=O)c2sc(C(C)(C)C)cc2NC(=O)Nc2ccc(C)c(-c3ccc(CN4CCOCC4)nc3)c2)C(C)(C)C1=O [1-(5-tert-butyl-2-(4-ethyl-2,2-dimethyl-3-oxopiperazine-1-carbonyl)thiophen-3-yl)-3-(4-methyl-3-(6-(morpholinomethyl)pyridin-3-yl)phenyl)urea]"
10,< 100 nM,"COc1ccc(-c2cc(NC(=O)Nc3sc(C(C)(C)C)cc3C(=O)N3CCN(C)C(=O)C3(C)C)c(F)cc2C)cn1 [1-(5-tert-butyl-3-(2,2,4-trimethyl-3-oxopiperazine-1-carbonyl)thiophen-2-yl)-3-(2-fluoro-5-(6-methoxypyridin-3-yl)-4-methylphenyl)urea]"
11,< 100 nM,"Cc1ccc(NC(=O)Nc2sc(C(C)(C)C)cc2C(=O)N2CCN(C)C(=O)C2(C)C)cc1-c1ccc(C(C)(C)O)nc1 [1-(5-tert-butyl-3-(2,2,4-trimethyl-3-oxopiperazine-1-carbonyl)thiophen-2-yl)-3-(3-(6-(2-hydroxypropan-2-yl)pyridin-3-yl)-4-methylphenyl)urea]"
12,< 100 nM,"COCCOc1ccc(-c2cc(NC(=O)Nc3sc(C(C)(C)C)cc3C(=O)N3CCN(C)C(=O)C3(C)C)ccc2C)cn1 [1-(5-tert-butyl-3-(2,2,4-trimethyl-3-oxopiperazine-1-carbonyl)thiophen-2-yl)-3-(3-(6-(2-methoxyethoxy)pyridin-3-yl)-4-methylphenyl)urea]"

# Reference: patent US20100041642A1, “UREA INHIBITORS OF MAP KINASES” (LOCUS PHARMACEUTICALS, INC., priority 2008, published 2010)
